Article PMC12715762, “Discovery of VU6052254: A Novel, Potent M1 Positive Allosteric Modulator” (ACS Chemical Neuroscience, 2025)

Legend:
rat M1 = biological target: T1, rat M1 (Rattus norvegicus, UniProt P08482); assay: M1 PAM calcium mobilization assay (rat); type: cell-based; conditions: for rM1 PAM AChmax (%): rat M1, % ACh max, n = 5; for EC50: rat M1, n = 5, read-out: rM1 PAM EC50
T1 construct: expressed in transfected cells
T1 sequence (P08482 1-460): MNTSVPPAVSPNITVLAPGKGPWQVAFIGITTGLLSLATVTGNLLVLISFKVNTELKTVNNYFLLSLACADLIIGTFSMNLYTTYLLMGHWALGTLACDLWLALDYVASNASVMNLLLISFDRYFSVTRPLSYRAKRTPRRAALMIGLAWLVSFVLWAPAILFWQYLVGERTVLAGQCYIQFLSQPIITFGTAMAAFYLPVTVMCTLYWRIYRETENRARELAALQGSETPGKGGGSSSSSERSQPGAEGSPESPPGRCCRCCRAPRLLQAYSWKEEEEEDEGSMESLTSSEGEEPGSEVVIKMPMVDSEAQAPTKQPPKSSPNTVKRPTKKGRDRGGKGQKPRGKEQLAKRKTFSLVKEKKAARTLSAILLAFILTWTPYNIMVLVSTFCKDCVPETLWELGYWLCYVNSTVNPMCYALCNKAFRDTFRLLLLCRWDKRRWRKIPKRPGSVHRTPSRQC

rM2-5 = assay: muscarinic selectivity calcium mobilization (rat M2-5); type: cell-based
[1] = predicted hepatic clearance, hepatic microsomes (rat); type: in vitro ADME; conditions: rat (r)
Experimental: After a 5 min preincubation, the reaction was initiated by the addition of NADPH (1 mM). At selected time intervals (0, 3, 7, 15, 25, and 45 min), aliquots were taken and subsequently placed into a 96-well plate containing cold acetonitrile with internal standard (50 ng/mL carbamazepine). Plates were then centrifuged at 3000 rcf (4 °C) for 10 min, and the supernatant was transferred to a separate 96-well plate and diluted 1:1 with water for LC/MS/MS analysis. The in vitro half-life ( 1/2, min, Eq. 1), intrinsic clearance (CLint, mL/min/kg, Eq. 2), and subsequent predicted hepatic clearance (CLhep, mL/min/kg, Eq. 3) was determined employing the […]
where k represents the slope from linear regression analysis of the natural log percent remaining of a test compound as a function of incubation time […]
(2) CLint = in vitroT x mg microsomes x gram liver x kg body wt ascale-up factors: of 20 (human) or 45 (rat) […]
where Qh (hepatic blood flow, mL/min/kg) is 21 (human) or 70 (rat).
LC/MS/MS Bioanalysis of Samples from Plasma Protein Binding and Intrinsic Clearance […]
Samples were analyzed on a Thermo Electron TSQ Quantum Ultra triple quad mass spectrometer (San Jose, CA) via electrospray ionization (ESI) with two Themo Electron Accella pumps (San Jose, CA), and a Leap Technologies CTC PAL autosampler (Carrboro, NC). […]

SMILES	rM1 PAM AChmax (%) (rat M1)	EC50 (rat M1) [nM]	EC50 (rM2-5) [nM]	Predicted CLhep [1] [mL/min/kg]
Cn1cc2c(-c3cc(F)c(CN4Cc5ncccc5C4=O)c(F)c3)cccc2n1 [compound 1, reference compound]	81	398	> 30000	5.7
Cn1cc2c(-c3cc(F)c(CN4Cc5ncccc5C4=O)c(F)c3)ccc(C(C)(C)O)c2n1 [compound 7]	94	78	> 30000	35.5
